Consider five molecules from ChEMBL document CHEMBL5634148, “Synthesis and evaluation of novel pleuromutilin derivatives targeting the 50S ribosomal subunit for antibacterial ability” (Eur J Med Chem, 2023).

The structures appear in SMILES notation. Values after ≈ are worked out from the molar mass of the structure shown.

For orientation: MIC means the lowest concentration found to suppress growth.

Series [1] concerns Staphylococcus aureus. The experiment in a line: Antibacterial activity against Staphylococcus aureus assessed as reduction in bacterial count at 6 times MIC incubated for 24 hrs by time kill assay. The class given is functional.
The test system of series [2] is Staphylococcus aureus. The experiment in a line: Antibacterial activity against methicillin-resistant Staphylococcus aureus ATCC 29213 assessed as reduction in bacterial count at 6 times MIC incubated for 24 hrs by time kill assay. The series is classed as functional.
Series [3] relates to Staphylococcus aureus. The experiment in a line: Bactericidal activity against methicillin-resistant Staphylococcus aureus ATCC 29213 incubated for 24 hrs by time kill assay. The series is classed as functional, organism-based.
The subject of series [4] is Staphylococcus aureus. Kind of series: Bactericidal activity against Staphylococcus aureus incubated for 24 hrs by time kill assay. The class given is functional, organism-based.
Series [5] deals with Staphylococcus aureus. The experiment in a line: Antibacterial activity against methicillin-resistant Staphylococcus aureus BNCC 337371 assessed as bacterial growth inhibition incubated for 18 to 24 hrs by NCCLS based assay. The series is classed as functional. As to conditions: time 18-24 hrs.
In series [6] the test system is Staphylococcus epidermidis. Kind of series: Antibacterial activity against methicillin-resistant Staphylococcus epidermidis ATCC 51625 assessed as bacterial growth inhibition incubated for 18 to 24 hrs by NCCLS based assay. The series is classed as functional. As to conditions: time 18-24 hrs.
Series [7] has as its system Staphylococcus aureus. Kind of series: Antibacterial activity against Staphylococcus aureus ATCC 25923 assessed as bacterial growth inhibition incubated for 18 to 24 hrs by NCCLS based assay. The series is classed as functional. As to conditions: time 18-24 hrs.
Series [8] relates to Streptococcus agalactiae. The experiment in a line: Antibacterial activity against Streptococcus agalactiae assessed as bacterial growth inhibition incubated for 18 to 24 hrs by NCCLS based assay. The class given is functional. As to conditions: time 18-24 hrs.
Series [9] has as its system Enterococcus faecalis. The experiment in a line: Antibacterial activity against Enterococcus faecalis assessed as bacterial growth inhibition incubated for 18 to 24 hrs by NCCLS based assay. The series is classed as functional. Particulars: time 18-24 hrs.
Series [10] deals with Pasteurella multocida. Kind of series: Antibacterial activity against Pasteurella multocida CVCC 1659 assessed as bacterial growth inhibition incubated for 18 to 24 hrs by NCCLS based assay. The series is classed as functional. Particulars: time 18-24 hrs.
Series [11] concerns Escherichia coli. Kind of series: Antibacterial activity against Escherichia coli CICC 10389 assessed as bacterial growth inhibition incubated for 18 to 24 hrs by NCCLS based assay. The class given is functional. Particulars: time 18-24 hrs.
A short description of series [12]: Toxicity in neutropenic Balb/c mouse model infected with methicillin-resistant Staphylococcus aureus assessed as animal survival at 40 mg/kg, iv measured for 7 days. The series is classed as organism-based. As to conditions: in vivo, 168 h, time 7 day.
In series [13] the test system is Staphylococcus aureus. Kind of series: Antibacterial activity against methicillin-resistant Staphylococcus aureus infected in neutropenic Balb/c mouse model assessed as reduction in bacterial load in lungs at 40 mg/kg, iv measured after 5 days. The class given is functional. As to conditions: time 5 day.
In series [14] the test system is Staphylococcus aureus. Kind of series: Antibacterial activity against methicillin-resistant Staphylococcus aureus infected in neutropenic Balb/c mouse model assessed as reduction in bacterial load in lungs at 15 mg/kg, iv measured after 5 days. As to conditions: time 5 day. The series is classed as functional.

On to `C=C[C@]1(C)C[C@@H](OC(=O)CSc2ncnc(NCCN(C)C)n2)[C@]2(C)[C@H](C)CC[C@]3(CCC(=O)[C@H]32)[C@@H](C)[C@@H]1O`, for which the figures for the “log(activity)” value in series [1] and in series [2] were 2.14 and 0.32, respectively. Moreover, the Activity result in series [3] and in series [4] was “Dose-Dependent Effect” in each case. The MIC in series [5] is 0.063 µg/mL (≈ 0.113 µM); in [6], 0.125 µg/mL (≈ 0.223 µM); in series [7], 0.031 µg/mL (≈ 0.0554 µM); in series [8] it was 0.063 µg/mL (≈ 0.113 µM); in series [9] it was 16 µg/mL (≈ 28.6 µM); in series [10] it was no less than 64 µg/mL. For the same molecule, the MIC in series [11] is no less than 64 µg/mL.
As to `C=C[C@]1(C)C[C@@H](OC(=O)CSCCN(CC)CC)[C@]2(C)[C@H](C)CC[C@]3(CCC(=O)[C@H]32)[C@@H](C)[C@@H]1O` [TIAMULIN], the MIC in [5] is 0.5 µg/mL (≈ 1.01 µM); in series [6], 0.5 µg/mL (≈ 1.01 µM); in series [7] it was 0.25 µg/mL (≈ 0.506 µM); in series [8] it was 0.125 µg/mL (≈ 0.253 µM); in [9], 16 µg/mL (≈ 32.4 µM); in series [10], no less than 64 µg/mL. Besides, the minimum inhibitory concentration (MIC) in series [11] was no less than 64 µg/mL. Further, the Activity was 50% in [12], roughly 2 log10CFU/ml in series [13] and 1.24 log10CFU/ml in series [14].
On to `C=C[C@]1(C)C[C@@H](OC(=O)CSc2ncnc(N3CCOCC3)n2)[C@]2(C)[C@H](C)CC[C@]3(CCC(=O)[C@H]32)[C@@H](C)[C@@H]1O`, for which the Activity entry in series [3] and in series [4] was “Dose-Dependent Effect” in each case. The minimum inhibitory concentration (MIC) in series [5] is 0.063 µg/mL (≈ 0.113 µM); in series [6] it was 0.125 µg/mL (≈ 0.224 µM); in [7] it was 0.063 µg/mL (≈ 0.113 µM); in series [8], 0.125 µg/mL (≈ 0.224 µM); in [9], 32 µg/mL (≈ 57.3 µM); in series [10], no less than 64 µg/mL. The MIC in series [11] was no less than 64 µg/mL.
`C=C[C@]1(C)C[C@@H](OC(=O)CSc2ncnc(N)n2)[C@]2(C)[C@H](C)CC[C@]3(CCC(=O)[C@H]32)[C@@H](C)[C@@H]1O`: the minimal inhibitory concentration (MIC) is 0.125 µg/mL (≈ 0.256 µM) in series [5]; 0.25 µg/mL (≈ 0.512 µM) in series [6]; 0.125 µg/mL (≈ 0.256 µM) in series [7]; 0.125 µg/mL (≈ 0.256 µM) in series [8]; 16 µg/mL (≈ 32.7 µM) in series [9]; no less than 64 µg/mL in series [10]. The MIC in [11] is no less than 64 µg/mL.
With `C=C[C@]1(C)C[C@@H](OC(=O)CSc2ncnc(NCCN3CCOCC3)n2)[C@]2(C)[C@H](C)CC[C@]3(CCC(=O)[C@H]32)[C@@H](C)[C@@H]1O`, the MIC was 0.125 µg/mL (≈ 0.208 µM) in series [5]; 0.25 µg/mL (≈ 0.415 µM) in series [6]; 0.063 µg/mL (≈ 0.105 µM) in series [7]; 0.125 µg/mL (≈ 0.208 µM) in [8]; 32 µg/mL (≈ 53.2 µM) in series [9]; no less than 64 µg/mL in series [10]. In addition, in [11], the MIC was no less than 64 µg/mL.
